Assays:
HH cells = experiment: HH cell viability, Annexin-V/7-AAD flow cytometry; assay type: cell-based, human; conditions: 48 hours treatment
Method: The alkylating agent bendamustine (MundiPharma) was dissolved in methanol.
Human primary T-PLL cells are unsuitable for cultivation under standard laboratory cell culture conditions, in part, due to their high levels of genomic heterogeneity and variable phenotypes. HH cells are derived from a highly chemotherapy resistant cutaneous lymphoma, and are suitable for cultivation under laboratory conditions. […] HH cells were therefore selected for the in vitro validation of EDO-S101.
To evaluate the cytotoxicity of EDO-S101 in comparison to bendamustine and vorinostat (SAHA), HH cells were treated with either EDO-S101, bendamustine, vorinostat or an equimolar bendamustine/vorinostat combination over a period 48 hours. Cells were treated with either 0.1 μM, 1 μM, 2.5 μM, 5 μM or 10 μM solutions of the indicated compounds (FIG. 1a).
Annexin-V specifically targets and identifies apoptotic cells. 7-AAD is a marker of late stage apoptotic, or necrotic cells. The number of Annexin-V and 7-AAD negative cells was counted for each sample.

T-PLL cells = experiment: Western blot analysis of patient T-PLL samples; assay type: cell-based, human; conditions: 1 μM, 36 hours
Method: FISH analysis used standard protocols (Vysis, Abbott).
T-PLL cells were cultured in suspension, and treated with either bendamustine (1 μM), vorinostat (1 μM), EDO-S101 (1 μM) or an equimolar combination of vorinostat/bendamustine (1 μM) for 36 hours at the indicated concentrations. After this time, the cells were harvested and lysed, the cell lysate sonicated, centrifuged to remove any cellular debris, and the supernatant collected. The protein concentration of each cell lysate solution (the supernatant) was determined and the western blot performed using standard methods.
The antibodies used were acHistone 3 (Sigma Aldrich), phospho-ATM Serine1981 (Sigma Aldrich), ATM (Sigma Aldrich), phospho-KAP-1 Serine824 (Sigma Aldrich), KAP-1 (Sigma Aldrich), phosphor-p53 Serine15 (Sigma Aldrich), acetyl-p53 (Sigma Aldrich), p53 (Sigma Aldrich), PARP (Sigma Aldrich), cleaved-PARP (Sigma Aldrich), and β-Actin (Sigma Aldrich).
After this time, the cells were harvested, lysed and protein expression levels determined by western blot analysis.
Staining for β-Actin was used as a loading control for each western blot ran (rows a to k, and rows l to o respectively).

[1] = Healthy CD3+ T-cell cytotoxicity; assay type: cell-based, human; conditions: human, healthy CD3+ T-cells, suspension culture; read-out: LC50 (the source's name)
From the text: (§1) Healthy CD3+ T-cells were isolated from healthy human donors.

healthy CD3+ T-cells = experiment: Healthy CD3+ T-cell cytotoxicity; assay type: cell-based, human; conditions: selectivity T-PLL over healthy T-cells
From the text: as §1

[2] = test system: T-PLL/NKtert co-cultured cells; experiment: T-PLL/NKtert co-culture apoptosis, Annexin-V/7-AAD flow cytometry; assay type: cell-based, human; conditions: 48 hours; for overcoming NKtert associated protection of co-cultured T-PLL cells: 0.1, 1 or 10 μM
Method: For co-culture experiments human bone marrow stromal cells (BMSC) NKtert cells (RIKEN BRC, Japan) were seeded at concentrations of 1.5×10^4 cells/well (96 well plate) and incubated at 37° C. in 5% CO2. After 24 hours, NKtert cells at approximately 60-80% confluency were treated with 0.02 mg/mL Mitomycin C for 3 hours in […], and then washed twice with PBS (Life Technologies). After another 24 hours, 4×10^5 T-PLL cells were added per well (with and without feeder cell support) and treated for 48 hours with the indicated compounds.
Referring to FIG. 3b, the control sample Ø on the left hand graph is normalised to 1 for normal T-PLL cells.

NKtert cells = experiment: NKtert bone marrow stromal cell viability, MTT assay; conditions: 0.1, 1, 5 or 10 μM, 48 hours
Method: Cells were cultured in a HERAcell incubator (Thermo Scientific Heraeus) at 37° C. and 5% CO2 with 90% humidity. CD4+ mature T-cell leukemia HH cells were originally isolated from a patient with Sézary Syndrome (Starkebaum et al., 1991). NKtert (human bone marrow stromal cells [BMSC]) were purchased from RIKEN Cell Bank in 2011. Only cells derived from the original cell stock as purchased, and which had been propagated for 2 to 3 passages before long-term storage in liquid nitrogen, were used. Cell cultures were terminated after the 10th passage (4 to 6 weeks of being in culture). Cells were authenticated following thawing by evaluation of characteristic growth behaviour and by flow cytometry. Cells were routinely tested for the presence of mycoplasma, using standard PCR protocols (primers: for1: 5′-acaccatgggagytggtaat-3′, (SEQ ID No; 1) rev1: 5′-cttcwtcgattycagacccaaggcat-3 (SEQ ID NO: 2)′, for2: 5′-gtgsggmtggatcacctcct-3 (SEQ ID NO: 3)′, rev2: 5′-gcatccaccawawacyctt-3′ (SEQ ID NO: 4)).
Consequently, the effect on cell viability of NKtert bone marrow stromal cells (BMSC) feeders cells alone was also investigated. Cells were treated with either bendamustine, vorinostat, an equimolar combination of bendamustine and vorinostat, or EDO-S101, at either 0.1, 1, 5 or 10 μM concentrations, incubated for 48 hours, and cell viability assessed using MTT assays (FIG. 3d).

CD2-MTCP1 cells = experiment: CD2-MTCP1p13 leukaemia transfer model in mice; assay type: in vivo; conditions: for increase in leukemic blood leukocyte (WBC) count: Day 14 vs Day 9 post-transplantation, compared to control and fludarabine; for average post-mortem spleen weight: day 22 post-transplantation, compared to fludarabine or control
From the text: DBA2×C57B6JF1 mice were used as recipients in all experiments. Transplantable leukaemia/lymphoma cells derived from CD2-MTCP1p13 tg mice (Gritti et al, Blood 1998, 92, 268-73; blood, spleen, and bone marrow) were intraperitoneally injected into background-matched mice (to facilitate the generation of uniform cohorts). 1×10^7 cells from CD2-MTCP1p13 mice were intraperitoneally injected into syngeneic recipients (n=26). Starting on day 10 post-transplantation, mice with a homogeneous distribution of leukemic blood leukocytes (WBC) were selected and randomly assigned into four treatment groups. Each group was then treated with either vehicle control (DMSO), fludarabine (34 mg/kg days 10, 15, 17, 21), bendamustine (day 10 at 60 mg/kg, days 15, 17, 21 at 20 mg/kg), and EDO-S101 (day 10 at 50 mg/kg, days 15, 17, 21 at 20 mg/kg) on the indicated days at the indicated doses.
Mice were injected with leukaemia cells derived from CD2-MTCP1 mice, as previously described (FIG. 4a).
CD2-MTCP1 cells are an aggressive, transplantable subline and are suitable for in vivo analysis as a T-PLL like model. […] Each group was intravenously administered either fludarabine (34 mg/kg), bendamustine (Day 10, 60 mg/kg; Day 15-21, 20 mg/kg) or EDO-S101 (Day 10, 50 mg/kg; Day 15-21, 20 mg/kg) at the indicated doses on Day 10, Day 15, Day 17, […] Day 21 post-transplantation. Samples of blood were taken at regular intervals (Day 9 and Day 14 post-transplantation), and the mice sacrificed at 22 days post-transplantation (FIG. 4a).
The blood samples taken were analysed for leukemic blood leukocyte levels (WBC), and the average cell count in each group determined.
Following sacrifice of the mice on day 22 post-transplantation, the post-mortem spleen weights of each mouse were determined (FIG. 4c). The reduced average spleen weight in mouse cohorts treated with bendamustine or EDO-S101, compared to cohorts treated with fludarabine or a control, corroborate the findings previously discussed in FIG. 4b. Tumour manifestation was therefore shown to be less advanced in cohorts treated with EDO-S101 or single-agent bendamustine, compared to fludarabine treated or control cohorts.

[3] = test system: leukaemia/lymphoma cells derived from ΔJAK1 mice; experiment: ΔJAK1 mature T-cell lymphoma transfer model in mice; assay type: in vivo; conditions: for mean survival: 18 mg/kg i.v. on Day 7, 10, 13, 17, 22
Method: Transplantable leukaemia/lymphoma cells derived from ΔJAK1 mice (Heinrich et al, Mol. Ther. 2013, 21, 1160-8; nodal/spleen mature T-cell lymphoma based on insertional mutagenesis activating JAK1) were intravenously injected into background-matched mice (to facilitate the generation of uniform cohorts). 2.5×10^6 cells were transplanted intravenously into Rag1-deficient mice. […] Each treatment group was then treated with 18 mg/kg of either bendamustine, fludarabine, EDO-S101, or with vehicle control on days 7, 10, 13, 17, 22 (DMSO).
Mice were injected with leukaemia/lymphoma cells derived from ΔJAK1 mice, as previously described (FIG. 5). ΔJAK1 is a model for mature T-cell lymphoma. Mice were divided into four groups at random post-transplantation. Each group was intravenously administered either fludarabine (18 mg/kg), bendamustine (18 mg/kg) or EDO-S101 (18 mg/kg) at the indicated doses on Day 7, Day 10, Day 13, Day 17 and Day 22. The percentage survival of each cohort was plotted as a function of time (FIG. 5).

[4] = test system: primary human T-PLL cells
Method: (§2) RPMI-1640 medium (Sigma-Aldrich) supplemented with 1% L-Glutamine (200 mM; Sigma-Aldrich), 10% fetal bovine serum (FBS) (Sigma-Aldrich) and Penicillin/Streptomycin (100 U/0.1M; PAA) was used for in-vitro experimentation on suspension cultures of primary T-PLL cells, healthy CD3+ T cells, HH cells, and in co-culture experiments with NKtert cells. Cell suspensions were maintained at a density of 1.0×10^6 cells/mL (primary T-PLL cells) and 2.5×10^5 cells/mL (HH cells) for all cell culture experiments.
(§3) EDO-S101 (EDO MundiPharma), and vorinostat (SAHA; SML0061-5 mg, Sigma-Aldrich) were dissolved in DMSO. […] Cells were treated with each compound (or compounds) at the indicated concentrations and times. Dosing was based on published ranges and IC50/LD50 titrations. Cell apoptosis was determined using dual staining for Annexin-V (AnxV) and 7AAD via flow cytometry.
(§4) To further evaluate apoptosis in cells treated with EDO-S101, primary human T-PLL cells were treated with either vorinostat, bendamustine, EDO-S101, or an equimolar combination of vorinostat and bendamustine, at 0.01 μM, 0.1 μM, 1 μM, 5 μM or 10 μM concentrations, and incubated for 48 hours. Following treatment, cell death was evaluated by staining cells with the apoptosis markers Annexin-V and 7-AAD, and the number of apoptotic cells quantified by flow cytometry. Each experiment was repeated for the indicated number of times, and the average number of apoptosis negative cells plotted and normalised relative to an untreated control sample. A dose response curve (FIG. 3a) for each treatment was subsequently plotted, and the LD50 (median lethal dose) of each treatment determined.
(§5) To evaluate the protections conferred by NKtert cells to primary human T-PLL cells, NKtert cells and T-PLL cells were co-cultured for treatment with EDO-S101. Primary T-PLL cells with (FIG. 3b) and without (FIG. 3c) co-cultures of NKtert cells were treated with increasing concentrations (0.1, 1, or 10 μM) of vorinostat, bendamustine, an equimolar combination of vorinostat and bendamustine, or EDO-S101, and incubated for 48 hours.
(§6) Following treatment, cell death was evaluated by staining cells with the apoptosis markers Annexin-V and 7-AAD, and the number of apoptotic cells quantified by flow cytometry. Each experiment was repeated for the indicated number of times, and the average number of apoptosis negative cells plotted as a ratio relative to an untreated control sample (FIG. 3b, FIG. 3c).

[5] = test system: primary human T-PLL cells; experiment: cells; conditions: 48 h, read-out: LC50
Method: as §2, §3, §4, §5, §6

T-PLL = conditions: cited from earlier work
[6] = vs bendamustine, vorinostat or combination

Row | Molecule | LD50 (median lethal dose) (HH cells) [µM] | overcoming NKtert associated protection of co-cultured T-PLL cells [2] | reduction in viability of NKtert cells (NKtert cells) | increase in leukemic blood leukocyte (WBC) count (CD2-MTCP1 cells) | average post-mortem spleen weight (CD2-MTCP1 cells) | mean survival [3] [days] | CC50 [5] [µM] | further results
1 | Cn1c(CCCCCCC(=O)NO)nc2cc(N(CCCl)CCCl)ccc21 [EDO-S101, 7-(5-(bis(2-chloroethyl)amino)-1-methyl-1H-benzo[d]imidazol-2-yl)-N-hydroxyheptanamide] | 1.5 | overcame the protection conferred by the NKtert cells | largely comparable | significantly delayed | reduced | 26 | 1 | accumulation of acetyl-p53 (T-PLL cells; [6]): greatest accumulation; accumulation of p-p53 (T-PLL cells; [6]): greatest accumulation; cleaved PARP (cPARP) (T-PLL cells; [6]): greatest increase; levels of pATM (T-PLL cells; [6]): largest increase; levels of pKAP1 (T-PLL cells; [6]): largest increase; levels of γH2AX (T-PLL cells; [6]): largest increase; acetylation of histone3 (acHistone3) (T-PLL cells; vs vorinostat or vorinostat + bendamustine): largest increase; CC50 [1]: 4.4 µM; fold more potent against T-PLL cells compared to healthy CD3+ T-cells (healthy CD3+ T-cells): approximately 4 fold; approximate cell death count ([2]; co-cultured T-PLL/NKtert cells, 10 μM): greater than 95%; increase in average survival time compared to bendamustine or fludarabine ([3]; 18 mg/kg i.v.): ≤ 8 days; fold increase in potency against T-PLL cells compared to combination of vorinostat and bendamustine ([4]; LC50 1.0 μM vs 4.4 μM): ~4 fold; approximate cell death count ([4]; T-PLL cells monoculture, 10 μM, 48 hours): greater than 95%
2 | Cn1c(CCCC(=O)O)nc2cc(N(CCCl)CCCl)ccc21 [bendamustine, reference compound] | 8.0 | not as effective as EDO-S101 | did not have a pronounced concentration dependent effect | significantly delayed | reduced | 18 | 7.3 | 
3 | Nc1nc(F)nc2c1ncn2[C@@H]1O[C@H](CO)[C@@H](O)[C@@H]1O [fludarabine, reference compound] |  |  |  |  |  | 19 |  | 
4 | O=C(CCCCCCC(=O)Nc1ccccc1)NO [vorinostat] | 2.7 | not as effective as EDO-S101 |  |  |  |  | 20.4 | 
5 | Alemtuzumab: monoclonal anti-CD52 antibody |  |  |  |  |  |  |  | overall response rates (T-PLL; T-PLL patients): 51-95%; median survival (T-PLL; patients achieving a complete response): 15-19 months
